Measurements taken from patent publication US20250114456A1, “ENHANCED IMMUNOTHERAPEUTIC METHOD COMPRISING COMBINED ADMINISTRATION OF PHOTODYNAMIC / RADIOTHERAPEUTIC COMPOUNDS AND IMMUNOTHERAPEUTIC AGENTS” (Theralase Technologies, Inc., priority 2023, published 2025).

How the values were obtained:
VISTA and PDL1/L2 = conditions: multiple preclinical models; cited from earlier work
[1] = tested on: CD47 expression in A549 human Non-Small Cell Lung Cancer cells; test: CD47 expression by flow cytometry, A549 cells, with or without radiation; format: cell-based; conditions: 4 hours, overnight incubation, FIG. 6
Experimental: A549 human Non-Small Cell Lung Cancer (“NSCLC”) cells were treated with RUVIDAR or RUTHERRIN for four (4) hours, then cells were treated with radiation or left untreated and then incubated further overnight before cell collection and analysis of CD47 expression by flow cytometry.

A549 human NSCLC cells = test: ATP secretion quantification in supernatant, A549 cells, with radiation; format: cell-based; conditions: 4 hours, combined with radiation, supernatant 1 hour after, FIG. 8
Experimental: A549 human NSCLC cells were treated with RUVIDAR or RUTHERRIN for four (4) hours, then cells were treated with radiation or left untreated, and then incubated further for one (1) hour before collection of supernatant for ATP secretion quantification.

SMILES | anti-tumor activity (VISTA and PDL1/L2) | CD47 expression ([1]; radiation treatment added) | CD47 expression ([1]; without radiation treatment) | ATP release (A549 human NSCLC cells)
C[C@@H](O)[C@H](NC(=O)N[C@@H](CC(N)=O)c1nc([C@H](N)CO)no1)C(=O)O [CA-170] | demonstrated anti-tumor activity in multiple preclinical models | – | – | –
Cc1ccnc(-c2cc(C)ccn2)c1.Cc1ccnc(-c2cc(C)ccn2)c1.[Cl-].[Cl-].[Ru+2].c1csc(-c2ccc(-c3ccc(-c4nc5c6cccnc6c6ncccc6c5[nH]4)s3)s2)c1 [RUVIDAR, Ru(4,4′-dimethyl-2,2′-bipyridine)2(2-(2′,2″:5″,2′-terthiophene)-imidazo[4,5-f][1,10]phenanthroline) chloride] | – | significantly reduced expression | downregulated CD47 expression | significantly increased ATP release
